Laboratory results taken from PubChem BioAssay AID2060510 (Molecular Pharmacology Branch, DTP, NCI, 2025).
pIC50: −log10 of the molar value.

Tested on: 439559-082-T-J2-PDC spheroids viability
Experiment: Anticancer human tumor 439559-082-T-J2-PDC patient-derived colon adenocarcinoma cell line growth inhibition [GQUAD]
Conditions: for pIC50: curve of first compound; for viability, T/C: stronger effect = lower value
Outline: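 Multi-cell-type spheroids of tumor cells with HUVEC and mesenchymal stem cells, treated with drug combinations. Concentrations descend in half-log steps from near clinical Cmax, or from 10 microM where Cmax is unknown; viability read-out.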

[1] = second compound 0.0316 µM, first compound 0.0316 µM
[2] = second compound 0.0316 µM, first compound 0.1 µM
[3] = second compound 0.0316 µM, first compound 0.316 µM
[4] = second compound 0.0316 µM, first compound 1 µM
[5] = second compound 0.0316 µM, first compound 3.16 µM
[6] = second compound 0.0316 µM, first compound 10 µM
[7] = second compound 0.1 µM, first compound 0.0316 µM
[8] = second compound 0.1 µM, first compound 0.1 µM
[9] = second compound 0.1 µM, first compound 0.316 µM
[10] = second compound 0.1 µM, first compound 1 µM
[11] = second compound 0.1 µM, first compound 3.16 µM
[12] = second compound 0.1 µM, first compound 10 µM
[13] = second compound 0.316 µM, first compound 0.0316 µM
[14] = second compound 0.316 µM, first compound 0.1 µM
[15] = second compound 0.316 µM, first compound 0.316 µM
[16] = second compound 0.316 µM, first compound 1 µM
[17] = second compound 0.316 µM, first compound 3.16 µM
[18] = second compound 0.316 µM, first compound 10 µM
[19] = second compound 1 µM, first compound 0.0316 µM
[20] = second compound 1 µM, first compound 0.1 µM
[21] = second compound 1 µM, first compound 0.316 µM
[22] = second compound 1 µM, first compound 1 µM
[23] = second compound 1 µM, first compound 3.16 µM
[24] = second compound 1 µM, first compound 10 µM
[25] = second compound 3.16 µM, first compound 0.0316 µM
[26] = second compound 3.16 µM, first compound 0.1 µM
[27] = second compound 3.16 µM, first compound 0.316 µM
[28] = second compound 3.16 µM, first compound 1 µM
[29] = second compound 3.16 µM, first compound 3.16 µM
[30] = second compound 3.16 µM, first compound 10 µM
[31] = second compound 10 µM, first compound 0.0316 µM
[32] = second compound 10 µM, first compound 0.1 µM
[33] = second compound 10 µM, first compound 0.316 µM
[34] = second compound 10 µM, first compound 1 µM
[35] = second compound 10 µM, first compound 3.16 µM
[36] = second compound 10 µM, first compound 10 µM
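Also: spheroids exposed to the agents for 7 days before readout.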
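For viability, T/C in this document: percent of luminescence signal in DMSO vehicle wells taken as 100% viability.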

COc1ncnc(C2CC2)c1-c1ncc2cnn(Cc3ccc(-c4nc(C(F)(F)F)cn4C(C)C)cc3)c2n1 + CN(C)c1ccc(Nc2c3ccc(NC(=O)CCN4CCCC4)cc3nc3cc(NC(=O)CCN4CCCC4)ccc23)cc1
pIC50 (second compound 0.0316 µM): < 5.00
pIC50 (second compound 0.1 µM): < 5.00
pIC50 (second compound 0.316 µM): < 5.00
pIC50 (second compound 1 µM): < 5.00
pIC50 (second compound 3.16 µM): < 5.00
pIC50 (second compound 10 µM): < 5.00
viability, T/C [1]: 93.2%
viability, T/C [2]: 106%
viability, T/C [3]: 90.6%
viability, T/C [4]: 89.5%
viability, T/C [5]: 103%
viability, T/C [6]: 98.5%
viability, T/C [7]: 98.7%
viability, T/C [8]: 93.5%
viability, T/C [9]: 97.5%
viability, T/C [10]: 99.1%
viability, T/C [11]: 94.8%
viability, T/C [12]: 96.6%
viability, T/C [13]: 91.6%
viability, T/C [14]: 96.1%
viability, T/C [15]: 82.7%
viability, T/C [16]: 97.7%
viability, T/C [17]: 96.8%
viability, T/C [18]: 102%
viability, T/C [19]: 98.8%
viability, T/C [20]: 96.3%
viability, T/C [21]: 98.4%
viability, T/C [22]: 87.9%
viability, T/C [23]: 104%
viability, T/C [24]: 92.7%
viability, T/C [25]: 90.4%
viability, T/C [26]: 98.4%
viability, T/C [27]: 91.6%
viability, T/C [28]: 93.5%
viability, T/C [29]: 96%
viability, T/C [30]: 99%
viability, T/C [31]: 89.3%
viability, T/C [32]: 86.2%
viability, T/C [33]: 90.6%
viability, T/C [34]: 96.6%
viability, T/C [35]: 105%
viability, T/C [36]: 92.6%

COc1cc(C2c3cc4c(cc3C(OC3OC5COC(C)OC5C(O)C3O)C3COC(=O)C23)OCO4)cc(OC)c1O (stereo unspecified) + CN(C)c1ccc(Nc2c3ccc(NC(=O)CCN4CCCC4)cc3nc3cc(NC(=O)CCN4CCCC4)ccc23)cc1
pIC50 (second compound 0.0316 µM): < 5.00
pIC50 (second compound 0.1 µM): < 5.00
pIC50 (second compound 0.316 µM): < 5.00
pIC50 (second compound 1 µM): < 5.00
pIC50 (second compound 3.16 µM): < 5.00
pIC50 (second compound 10 µM): < 5.00
viability, T/C [1]: 102%
viability, T/C [2]: 93.9%
viability, T/C [3]: 103%
viability, T/C [4]: 85.6%
viability, T/C [5]: 87.1%
viability, T/C [6]: 63.8%
viability, T/C [7]: 96.4%
viability, T/C [8]: 91.8%
viability, T/C [9]: 98.4%
viability, T/C [10]: 94.7%
viability, T/C [11]: 85%
viability, T/C [12]: 61.9%
viability, T/C [13]: 104%
viability, T/C [14]: 104%
viability, T/C [15]: 89.6%
viability, T/C [16]: 89%
viability, T/C [17]: 78.6%
viability, T/C [18]: 59.9%
viability, T/C [19]: 104%
viability, T/C [20]: 94.2%
viability, T/C [21]: 89.6%
viability, T/C [22]: 90%
viability, T/C [23]: 76.5%
viability, T/C [24]: 57%
viability, T/C [25]: 98%
viability, T/C [26]: 87.1%
viability, T/C [27]: 104%
viability, T/C [28]: 92.5%
viability, T/C [29]: 92.4%
viability, T/C [30]: 63.3%
viability, T/C [31]: 98.5%
viability, T/C [32]: 93.3%
viability, T/C [33]: 94.9%
viability, T/C [34]: 91.3%
viability, T/C [35]: 75.9%
viability, T/C [36]: 54.5%

COc1cccc2c1C(=O)c1c(O)c3c(c(O)c1C2=O)CC(O)(C(=O)CO)CC3OC1CC(N)C(O)C(C)O1 (stereo unspecified) + CN(C)c1ccc(Nc2c3ccc(NC(=O)CCN4CCCC4)cc3nc3cc(NC(=O)CCN4CCCC4)ccc23)cc1
pIC50 (second compound 0.0316 µM): 5.24
pIC50 (second compound 0.1 µM): 5.11
pIC50 (second compound 0.316 µM): 5.19
pIC50 (second compound 1 µM): 5.23
pIC50 (second compound 3.16 µM): 5.29
pIC50 (second compound 10 µM): 5.10
viability, T/C [1]: 106%
viability, T/C [2]: 86.7%
viability, T/C [3]: 93.4%
viability, T/C [4]: 77.5%
viability, T/C [5]: 62.2%
viability, T/C [6]: 38.8%
viability, T/C [7]: 93.8%
viability, T/C [8]: 95.5%
viability, T/C [9]: 89.1%
viability, T/C [10]: 73.2%
viability, T/C [11]: 59.1%
viability, T/C [12]: 47.4%
viability, T/C [13]: 96.8%
viability, T/C [14]: 101%
viability, T/C [15]: 91.9%
viability, T/C [16]: 83.5%
viability, T/C [17]: 60.6%
viability, T/C [18]: 43.4%
viability, T/C [19]: 91.3%
viability, T/C [20]: 99.9%
viability, T/C [21]: 89.8%
viability, T/C [22]: 86.1%
viability, T/C [23]: 59.4%
viability, T/C [24]: 42%
viability, T/C [25]: 94.6%
viability, T/C [26]: 96.1%
viability, T/C [27]: 84%
viability, T/C [28]: 84.9%
viability, T/C [29]: 54.8%
viability, T/C [30]: 42.4%
viability, T/C [31]: 88.7%
viability, T/C [32]: 102%
viability, T/C [33]: 82.4%
viability, T/C [34]: 77.8%
viability, T/C [35]: 62.4%
viability, T/C [36]: 46.8%
